From ChEMBL document CHEMBL1201862, “PubChem BioAssay data set” (2004) come the findings set out here.

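96-well plates; 48 h exposure; 5 concentrations. Endpoints by linear interpolation between flanking doses. Not reached: highest tested concentration assigned. Here, GI50 denotes the concentration required for 50% inhibition of growth.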 Active and inactive are the calls of the source. Rule as the data show it: active = GI50 up to about 1.1 µM and inactive = higher.

Among the test systems are SF-295; HCC 2998; UO-31; SF-268; M14; T47D; SK-MEL-2; COLO 205; 786-0; MDA-MB-435; HOP-92; MCF7; SK-MEL-5; ACHN; HL-60; SK-MEL-28; SR; SK-OV-3; SN12C; NCI-H23.
What all share (experiment): NCI tumour cell line growth inhibition, 48 h

Consider `COc1ccc(-c2coc3c4c(ccc3c2=O)OCO4)cc1OC`, for which the GI50 is 27.9 µM (inactive) in the assay on SF-295; > 100 µM (inactive) in the assay with HCC 2998; 99.8 µM (inactive) in the assay with UO-31; 34 µM (inactive) with SF-268; > 100 µM (inactive) in the assay on M14; > 100 µM (inactive) in the assay on T47D. Further, the GI50 in the assay on SK-MEL-2 is 65.3 µM (inactive); in the assay on COLO 205, > 100 µM (inactive); in the assay on 786-0 it was 35.4 µM (inactive); in the assay with MDA-MB-435, 5.87 µM (inactive); in the assay on HOP-92 it was 36.3 µM (inactive); in the assay with MCF7, 91 µM (inactive). Also, the GI50 with SK-MEL-5 is 55.5 µM (inactive); in the assay on ACHN it was 49.2 µM (inactive); in the assay on HL-60, 14.3 µM (inactive); in the assay on SK-MEL-28, > 100 µM (inactive); in the assay on SR, 8.87 µM (inactive); in the assay on SK-OV-3 it was 24.4 µM (inactive). The GI50 with SN12C is > 100 µM (inactive); in the assay with NCI-H23, 25 µM (inactive).
`COc1cccc2c1C(=O)c1ccc3cc(CCl)cc(O)c3c1C2=O`: the GI50 is 0.314 µM (active) in the assay with SF-295; 0.951 µM (active) in the assay with HCC 2998; 0.336 µM (active) in the assay with UO-31; 0.379 µM (active) in the assay on SF-268; 0.229 µM (active) in the assay on M14; 1.2 µM (inactive) in the assay on T47D. Moreover, the GI50 in the assay on SK-MEL-2 is 0.33 µM (active); with COLO 205, 0.203 µM (active); with 786-0, 0.174 µM (active); with MDA-MB-435, 0.198 µM (active); with HOP-92, 0.394 µM (active); in the assay on MCF7, 0.289 µM (active). Also, the GI50 with SK-MEL-5 is 0.364 µM (active); in the assay with ACHN, 0.233 µM (active); in the assay with HL-60, 0.21 µM (active); in the assay with SK-MEL-28, 0.348 µM (active); with SR, 0.04 µM (active); with SK-OV-3 it was 1.19 µM (inactive). Also, the GI50 was 0.163 µM (active) in the assay on SN12C and 0.402 µM (active) in the assay on NCI-H23.
For the molecule `NC1CC(=O)c2csc(Br)c21` (stereo not given), the GI50 with SF-295 is 35.2 µM (inactive); with HCC 2998, 18.5 µM (inactive); in the assay with UO-31, 16 µM (inactive); in the assay with SF-268, 20 µM (inactive); in the assay with M14, 19.5 µM (inactive); in the assay on T47D it was 24 µM (inactive). Moreover, the GI50 with SK-MEL-2 is 16 µM (inactive); in the assay on COLO 205, 16.5 µM (inactive); with 786-0, 12.9 µM (inactive); with MDA-MB-435, 12.9 µM (inactive); in the assay with HOP-92, 9.89 µM (inactive); with MCF7, 21.1 µM (inactive). Further, the GI50 is 20.9 µM (inactive) in the assay with SK-MEL-5; 16.4 µM (inactive) with ACHN; 4.39 µM (inactive) in the assay on HL-60; 18.5 µM (inactive) in the assay on SK-MEL-28; 5.09 µM (inactive) with SR; > 64.6 µM (inactive) in the assay on SK-OV-3. The GI50 in the assay on SN12C was 13.4 µM (inactive); in the assay on NCI-H23, 17.1 µM (inactive).
As for `COc1cccc(-c2nc(N)c(C#N)c3c2CCS(=O)(=O)c2ccc(C)cc2-3)c1`, the GI50 in the assay with SF-295 was 23.6 µM (inactive); in the assay on HCC 2998, 17.6 µM (inactive); with UO-31, 40.3 µM (inactive); in the assay on SF-268, 31.6 µM (inactive); in the assay on M14, 25.7 µM (inactive); with T47D it was 43.2 µM (inactive). For the same molecule, the GI50 in the assay with SK-MEL-2 was 38.3 µM (inactive); in the assay on COLO 205, 8.05 µM (inactive); in the assay with 786-0 it was 22.6 µM (inactive); in the assay on MDA-MB-435, 4.85 µM (inactive); in the assay with HOP-92, 68.7 µM (inactive); with MCF7 it was 37.9 µM (inactive). Further, the GI50 is 5.81 µM (inactive) in the assay on SK-MEL-5; > 100 µM (inactive) in the assay with ACHN; 5.08 µM (inactive) with HL-60; > 78.5 µM (inactive) with SK-MEL-28; 1.26 µM (inactive) in the assay on SR; 46.7 µM (inactive) with SK-OV-3. Further, the values for the GI50 in the assay on SN12C and in the assay on NCI-H23 were 44.4 µM (inactive) and 43.1 µM (inactive), respectively.
